How the values were obtained:
[1] = target: T1, human 5-HT1AR stably expressed in HEK293 cells (Homo sapiens, UniProt P08908); assay: Competition and competition-like (Zn titration) binding against 2.5 nM [3H]-8-OH-DPAT; conditions: 2.5 nM radioligand
T1 construct: The full-length human 5HTR1A complementary DNA (cDNA); membranes prepared from the cells
T1 sequence (P08908 1-422): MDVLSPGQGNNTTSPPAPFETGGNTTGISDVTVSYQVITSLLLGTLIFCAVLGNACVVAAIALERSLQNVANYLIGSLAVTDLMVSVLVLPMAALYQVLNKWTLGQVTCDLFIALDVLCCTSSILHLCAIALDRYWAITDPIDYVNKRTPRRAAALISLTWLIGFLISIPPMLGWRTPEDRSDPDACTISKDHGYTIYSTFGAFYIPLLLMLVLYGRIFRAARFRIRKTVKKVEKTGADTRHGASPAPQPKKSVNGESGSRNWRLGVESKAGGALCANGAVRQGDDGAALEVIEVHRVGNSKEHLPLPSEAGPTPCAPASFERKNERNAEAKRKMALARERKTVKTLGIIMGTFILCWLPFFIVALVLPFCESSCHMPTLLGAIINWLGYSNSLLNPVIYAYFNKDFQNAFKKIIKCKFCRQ
Experimental: The full-length human 5HTR1A complementary DNA (cDNA), which was cloned into the mammalian expression vector pcDNA3.1(+), was obtained from the Missouri S&T cDNA Resource Center (www.cdna.org). The receptor cDNA was stably transfected into human embryonic kidney cells (HEK293, ATCC) with the use of Lipofectamine 2000 (Invitrogen).
Cell pellets were thawed and homogenized in 20 volumes of 50 mM Tris–HCl buffer (pH 7.7) containing 0.1 mM EDTA and 10 mM MgCl2, using an Ultra Turrax tissue homogenizer. The pellets were then centrifuged twice at 35,000g for 20 min at 4 °C, with incubation for 15 min at 37 °C in between centrifugations. Membranes were aliquoted in tubes. Membrane protein concentrations were determined using the Pierce™ Coomassie (Bradford) Protein Assay Kit, with bovine serum albumin (BSA) as a standard.
The incubation buffer consisted of 50 mM Tris–HCl (pH 7.7), 10 mM MgCl2, 10 mM pargyline and 0.1 % ascorbic acid. Radioligand binding assays were performed by incubating 30 μg of protein of the membrane suspension in 96-well microtitre plates for 60 min at room temperature with shaking, in a total volume of 200 μl. The binding reactions were stopped by filtration through GF/C Unifilter plates using a harvester (PerkinElmer). […] Radioactivity was measured using a MicroBeta TriLux counter (PerkinElmer).

[2] = target: T1, human 5-HT1AR stably expressed in HEK293 cells; assay: Association and dissociation kinetic assays of [3H]-8-OH-DPAT; type: binding
Experimental: Non-specific binding was defined by the addition of 10 μM serotonin. The amount of radioligand bound to the receptor was measured at different time intervals during a total incubation of 60 min in the absence or presence of 10 and 500 μM ZnCl2. For the dissociation assay, after incubating the membranes with radioligand for 60 min to achieve equilibrium, serotonin (10 μM), either alone or together with 10 or 500 μM of ZnCl2, was added, and the specifically bound radioligand was measured after incubations of different durations (from 0 to 60 min), which were terminated by rapid filtration.

increase of [3H]-8-OH-DPAT specific binding ([1]; 10 μM of Zn, bell-shaped titration curve): ~ 25% | effect on [3H]-8-OH-DPAT specific binding ([1]; Zn at >100 μM): inhibition | effect on association rate of [3H]-8-OH-DPAT ([2]; 10 μM of Zn ions): small increase in the association rate | effect on association rate of [3H]-8-OH-DPAT ([2]; 500 μM Zn): no effect on the kon values | effect on dissociation rate of [3H]-8-OH-DPAT ([2]; high Zn concentration (500 μM)): both phases were significantly reduced
SMILES: [Zn+2] [Zn, Zinc]
effect on dissociation rate of [3H]-8-OH-DPAT ([2]; low Zn concentration (10 μM)): disappearance of the fast radioligand dissociation rate

— PMC5104769, “Concentration-Dependent Dual Mode of Zn Action at Serotonin 5-HT1A Receptors: In Vitro and In Vivo Studies” (Molecular neurobiology, 2015)
